From ChEMBL document CHEMBL4376867 (J Med Chem, 2020)

What was measured:
[1] = target: T1, Serine/threonine-protein kinase 17A (Homo sapiens, UniProt Q9UEE5); assay: Inhibition of wild-type human partial length DRAK1 (R32 to E363 residues) expressed in bacterial expression system by Kinomescan method
T1 sequence (Q9UEE5 whole entry): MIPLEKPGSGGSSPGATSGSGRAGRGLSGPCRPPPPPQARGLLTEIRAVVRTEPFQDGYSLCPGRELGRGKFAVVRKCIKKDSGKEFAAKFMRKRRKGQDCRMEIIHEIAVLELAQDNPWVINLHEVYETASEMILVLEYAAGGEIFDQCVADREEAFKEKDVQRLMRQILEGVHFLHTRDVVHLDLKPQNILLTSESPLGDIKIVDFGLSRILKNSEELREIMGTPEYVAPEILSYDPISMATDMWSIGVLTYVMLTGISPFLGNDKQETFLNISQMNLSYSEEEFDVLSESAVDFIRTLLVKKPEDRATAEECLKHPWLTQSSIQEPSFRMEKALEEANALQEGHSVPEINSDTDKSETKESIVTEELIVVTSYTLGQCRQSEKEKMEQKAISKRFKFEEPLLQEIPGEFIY

[2] = target: T2, Serine/threonine-protein kinase TBK1 (Homo sapiens, UniProt Q9UHD2)
T2 sequence (Q9UHD2 whole entry): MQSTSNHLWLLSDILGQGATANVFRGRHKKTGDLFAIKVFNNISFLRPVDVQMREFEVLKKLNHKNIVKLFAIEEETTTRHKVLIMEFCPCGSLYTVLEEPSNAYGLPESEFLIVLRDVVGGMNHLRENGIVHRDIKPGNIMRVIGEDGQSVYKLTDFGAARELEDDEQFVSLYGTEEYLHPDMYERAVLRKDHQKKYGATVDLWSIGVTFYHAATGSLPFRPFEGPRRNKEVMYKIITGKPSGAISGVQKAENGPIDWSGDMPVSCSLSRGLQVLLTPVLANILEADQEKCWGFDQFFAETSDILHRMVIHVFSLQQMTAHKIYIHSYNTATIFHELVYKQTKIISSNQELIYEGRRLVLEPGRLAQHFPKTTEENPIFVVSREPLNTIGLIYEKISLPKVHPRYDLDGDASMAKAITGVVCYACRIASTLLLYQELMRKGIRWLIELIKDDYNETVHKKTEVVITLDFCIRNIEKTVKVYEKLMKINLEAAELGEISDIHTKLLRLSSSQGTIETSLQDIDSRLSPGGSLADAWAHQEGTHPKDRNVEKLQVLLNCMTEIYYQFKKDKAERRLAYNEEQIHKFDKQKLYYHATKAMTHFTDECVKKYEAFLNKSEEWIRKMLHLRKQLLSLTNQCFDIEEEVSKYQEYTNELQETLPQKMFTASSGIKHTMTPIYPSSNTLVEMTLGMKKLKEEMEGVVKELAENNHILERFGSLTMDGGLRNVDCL

[3] = target: T3, Inhibitor of nuclear factor kappa-B kinase subunit epsilon (Homo sapiens, UniProt Q14164); assay: Inhibition of recombinant full length human C-terminal GST-tagged IKKepsilon expressed in baculovirus expression system using biotin-labelled Ahx-GDEDFSSFAEPG peptide as substrate preincubated with enzyme for 15 mins followed by substrate addition and further incubated for 30 mins in presence of 10 uM of ATP by TR-FRET assay
T3 sequence (Q14164 whole entry): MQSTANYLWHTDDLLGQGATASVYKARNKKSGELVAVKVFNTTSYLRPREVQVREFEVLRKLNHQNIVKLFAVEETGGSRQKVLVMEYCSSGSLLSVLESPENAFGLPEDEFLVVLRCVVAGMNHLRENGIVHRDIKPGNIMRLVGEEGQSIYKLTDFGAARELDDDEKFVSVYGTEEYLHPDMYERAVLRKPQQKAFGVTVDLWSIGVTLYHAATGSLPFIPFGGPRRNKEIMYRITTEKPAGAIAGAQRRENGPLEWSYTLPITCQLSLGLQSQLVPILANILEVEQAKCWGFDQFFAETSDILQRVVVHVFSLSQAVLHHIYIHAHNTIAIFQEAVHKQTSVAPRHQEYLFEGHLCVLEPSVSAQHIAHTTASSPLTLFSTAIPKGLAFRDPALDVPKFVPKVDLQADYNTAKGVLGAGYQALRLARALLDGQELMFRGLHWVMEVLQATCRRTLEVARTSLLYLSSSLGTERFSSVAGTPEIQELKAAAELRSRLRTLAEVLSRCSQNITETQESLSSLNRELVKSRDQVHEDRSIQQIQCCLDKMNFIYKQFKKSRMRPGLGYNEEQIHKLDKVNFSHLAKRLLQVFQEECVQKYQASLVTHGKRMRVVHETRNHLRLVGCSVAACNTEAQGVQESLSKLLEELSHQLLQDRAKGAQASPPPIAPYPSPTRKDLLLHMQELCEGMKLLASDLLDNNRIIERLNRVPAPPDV

[4] = target: Ribosomal protein S6 kinase alpha-6 (Homo sapiens, UniProt Q9UK32); assay: Inhibition of recombinant full length human His6-tagged RSK4 expressed in baculovirus infected sf21 cells using biotin labelled Ahx-KKLNRTLSFAEPG peptide as substrate preincubated with enzyme for 15 mins followed by substrate addition and further incubated for 30 mins in presence of 10 uM of ATP by TR-FRET assay
Sequence of Ribosomal protein S6 kinase alpha-6 (Q9UK32 whole entry): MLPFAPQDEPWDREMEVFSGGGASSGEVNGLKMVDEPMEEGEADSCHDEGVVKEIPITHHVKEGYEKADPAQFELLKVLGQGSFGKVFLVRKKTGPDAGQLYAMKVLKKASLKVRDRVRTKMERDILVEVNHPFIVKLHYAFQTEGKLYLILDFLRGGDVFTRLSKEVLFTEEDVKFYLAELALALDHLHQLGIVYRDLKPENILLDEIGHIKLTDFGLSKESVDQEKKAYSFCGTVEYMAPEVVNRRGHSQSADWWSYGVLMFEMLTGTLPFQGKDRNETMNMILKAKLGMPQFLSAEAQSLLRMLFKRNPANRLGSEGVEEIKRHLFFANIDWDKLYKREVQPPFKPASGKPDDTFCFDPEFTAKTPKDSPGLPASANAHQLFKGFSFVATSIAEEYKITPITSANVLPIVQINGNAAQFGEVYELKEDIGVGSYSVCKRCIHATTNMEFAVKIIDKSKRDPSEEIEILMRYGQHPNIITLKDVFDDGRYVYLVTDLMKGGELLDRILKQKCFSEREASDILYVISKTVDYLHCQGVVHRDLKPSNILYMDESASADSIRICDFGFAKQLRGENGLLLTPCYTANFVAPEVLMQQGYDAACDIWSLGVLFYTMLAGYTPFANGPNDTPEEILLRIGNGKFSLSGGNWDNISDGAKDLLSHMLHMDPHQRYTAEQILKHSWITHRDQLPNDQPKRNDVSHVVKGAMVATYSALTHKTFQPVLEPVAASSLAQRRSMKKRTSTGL

[5] = Apparent permeability of compound across basal to apical membrane in human Caco2 cells at 2 uM in DMSO after 2 hrs by LC-MS/MS analysis; format: ADME, cell-based; conditions: Caco-2
SK-MEL-2 = assay: Antiproliferative activity against human SK-MEL-2 cells harboring NRAS/TP53 mutation assessed as reduction in cell viability after 96 hrs by CellTiter-Glo luminescence assay; format: functional, cell-based; conditions: SK-MEL-2, 96 h

SMILES	Kd [1] [nM]	IC50 [2] [nM]	IC50 [3] [nM]	IC50 [4] [nM]	Papp B→A at 2 h, 2 µM [5] [×10⁻⁶ cm/s]	IC50 (SK-MEL-2) [nM]	IC50 [1] [nM]
C[C@H](c1ccnc(Nc2nc3ccc(-c4cnn(CC5CC5)c4)cc3[nH]2)c1)N1CCN(C(=O)CC(F)(F)F)CC1	5	1	6	3220	11.8	408	
CN(C)c1cc(-c2ccc3nc(Nc4cc(CN5CCN(C(=O)CC(F)(F)F)CC5)ccn4)[nH]c3c2)ncn1		9	10	528		246	252
C[C@H](c1ccnc(Nc2nc3ccc(-c4cc(OCC5CC5)ncn4)cc3[nH]2)c1)N1CCN(C(=O)CC(F)(F)F)CC1		2	4	1260		470	
O=C(CC(F)(F)F)N1CCN(Cc2ccnc(Nc3nc4ccc(-c5cnn(CC6CC6)c5)cc4[nH]3)c2)CC1		5	7	4120	12.5	221	
Cc1cc(-c2ccc3nc(Nc4cc([C@@H](C)N5CCN(C(=O)CC(F)(F)F)CC5)ccn4)[nH]c3c2)ncn1		2	4	170		476	
CC(C)Oc1cncnc1-c1ccc2nc(Nc3cc([C@@H](C)N4CCN(C(=O)CC(F)(F)F)CC4)ccn3)[nH]c2c1		2		7		3970	
Cc1noc(-c2ccc3nc(Nc4cc(CN5CCN(C(=O)CC(F)(F)F)CC5)ccn4)[nH]c3c2)n1	9	129	168	8910	14.2	2180	
Cc1noc(-c2ccc3nc(Nc4cc([C@@H](C)N5CCN(C(=O)CC(F)(F)F)CC5)ccn4)[nH]c3c2)n1	10	19	37	2360	8.6	3530	
COCc1cc(-c2ccc3nc(Nc4cc([C@@H](C)N5CCN(C(=O)CC(F)(F)F)CC5)ccn4)[nH]c3c2)ncn1			2	192	21.8	883	30
CNc1cc(-c2ccc3nc(Nc4cc(CN5CCN(C(=O)CC(F)(F)F)CC5)ccn4)[nH]c3c2)ncn1		10	10	177		245	25
C[C@H](c1ccnc(Nc2nc3ccc(-c4cc(N(C)C)ncn4)cc3[nH]2)c1)N1CCN(C(=O)CC(F)(F)F)CC1 [BAY-985]		2	2	276	14.6 to 14.7	900	311
